Reference: patent US6492397B1, “N-arylheteroarylalkyl imidazol-2-one compounds for treatment of arteriosclerosis” (Pharmacia Corporation, priority 1991, dated 2002)
Read-outs that look alike come from different tables or passages of the source.

How the values were obtained:
rabbit aortic rings = assay: Assay B: In Vitro Vascular Smooth Muscle Response for AII (antagonist activity in rabbit aortic rings); assay type: cell-based; details: Oryctolagus cuniculus, test antagonist at 10^-5 M, AII contraction, read-out: Assay B pA2 (converted)
Protocol: Assay B: In Vitro Vascular Smooth Muscle-Response for AII
The compounds of the invention were tested for antagonist activity in rabbit aortic rings. Male New Zealand white rabbits (2-2.5 kg) were sacrificed using an overdose of pentobarbital and exsanguinated via the carotid arteries. The thoracic aorta was removed, cleaned of adherent fat and connective tissue and then cut into 3-mm ring segments. The endothelium was removed from the rings by gently sliding a rolled-up piece of filter paper into the vessel lumen. The rings were then mounted in a water-jacketed tissue bath, maintained at 37° C., between moveable and fixed ends of a stainless steel wire with the moveable end attached to an FT03 Grass transducer coupled to a Model 7D Grass Polygraph for recording isometric force responses. The bath was filled with 20 ml of oxygenated (95% oxygen/5% carbon dioxide) Krebs solution of the following composition (mM): 130 NaCl, 15 NaHCO3, […], 1.2 NaH2PO4, 1.2 MgSO4, 2.5 CaCl2, and 11.4 glucose. The preparations were equilibrated for one hour before approximately one gram of passive tension was placed on the rings. Angiotensin II concentration-response curves were then recorded (3×10^−10 to 1×10^−5 M). Each concentration of AII was allowed to elicit its maximal contraction, and then AII was washed out repeatedly for 30 minutes before rechallenging with a higher concentration of AII. Aorta rings were exposed to the test antagonist at 10^−5 M for 5 minutes before challenging with AII. Adjacent segments of the same aorta ring were used for all concentration-response curves in the presence or absence of the test antagonist. The effectiveness of the test compound was expressed in terms of pA2 values and were calculated according to H. O. Schild [Br. J. Pharmacol. Chemother., 2,189-206 (1947)]. The PA2 value is the concentration of the antagonist which increases the EC50 value for AII by a factor of two. Each test antagonist was evaluated in aorta rings from two rabbits.

pressor response to AII = assay: Assay C: In Vivo Intragastric Pressor Assay Response for AII Antagonists; design: species or system rat; details: for Assay C Duration: Dose: 3 mg/kg (i.g.), Sprague-Dawley rats, AII challenges up to 180 minutes after gavage; for inhibition in vivo at 3 mg/kg: Rattus norvegicus, po
Protocol: Assay C: In Vivo Intragastric Pressor Assay Response for AII Antagonists
Male Sprague-Dawley rats weighing 225-300 grams were anesthetized with methohexital (30 mg/kg, i.p.) and catheters were implanted into the femoral artery and vein. The catheters were tunneled subcutaneously to exit dorsally, posterior to the head and between the scapulae. The catheters were filled with heparin (1000 units/ml of saline). The rats were returned to their cage and allowed regular rat chow and water ad libitum. After full recovery from surgery (3-4 days), rats were placed in Lucite holders and the arterial line was connected to a pressure transducer. Arterial pressure was recorded on a Gould polygraph (mmHg). Angiotensin II was administered as a 30 ng/kg bolus via the venous catheter delivered in a 50 μl volume with a 0.2 ml saline flush. The pressor response in mm Hg was measured by the difference from pre-injection arterial pressure to the maximum pressure achieved. The AII injection was repeated every 10 minutes until three consecutive injections yielded responses within 4 mmHg of each other. These three responses were then averaged and represented the control response to AII. The test compound was suspended in 0.5% methylcellulose in water and was administered by gavage. The volume administered was 2 ml/kg body weight. The standard dose was 3 mg/kg. Angiotensin II bolus injections were given at 30, 45, 60, 75, 120, 150, and 180 minutes after gavage. The pressor response to AII was measured at each time point. The rats were then returned to their cage for future testing. A minimum of 3 days was allowed between tests. Percent inhibition was calculated for each time point following gavage by the following formula: [(Control Response−Response at time point)/Control Response]×100.

[1] = target: smooth muscle angiotensin II receptor; assay: Assay A: Angiotensin II Binding Activity (125I-angiotensin II displacement, rat uterine membrane preparation); details: 50% displacement of specifically bound 125I-AII, rat uterine membranes, 25° C., 60 min
Protocol: Assay A: Angiotensin II Binding Activity
Compounds of the invention were tested for ability to bind to the smooth muscle angiotensin II receptor using a rat uterine membrane preparation. […] Other chemicals were obtained from Sigma Chemical Co. This assay was carried out according to the method of Douglas et al [Endocrinology, 106, 120-124 (1980)]. Rat uterine membranes were prepared from fresh tissue. All procedures were carried out at 4° C. Uteri were stripped of fat and homogenized in phosphate-buffered saline at pH 7.4 containing 5 mM EDTA. The homogenate was centrifuged at 1500×g for 20 min., and the supernatant was recentrifuged at 100,000×g for 60 min. The pellet was resuspended in buffer consisting of 2 mM EDTA and 50 mM Tris-HCl (pH 7.5) to a final protein concentration of 4 mg/ml. Assay tubes were charged with 0.25 ml of a solution containing 5 mM MgCl2, 2 mM EDTA, 0.5% bovine serum albumin, 50 mM Tris-HCl, pH 7.5 and […] (approximately 10^5 cpm) in the absence or in the presence of unlabelled ligand. The reaction was initiated by the addition of membrane protein and the mixture was incubated at 25° C. for 60 min. The incubation was terminated with ice-cold 50 mM Tris-HCl (pH 7.5) and the mixture was filtered to separate membrane-bound labelled peptide from the free ligand. The incubation tube and filter were washed with ice-cold buffer. Filters were assayed for radioactivity in a Micromedic gamma counter. Nonspecific binding was defined as binding in the presence of 10 μM of unlabelled AII. Specific binding was calculated as total binding minus nonspecific binding. […] Binding data were analyzed by a nonlinear least-squares curve fitting program.

[2] = first value of the pair (aorta rings from two rabbits)
[3] = second value of the pair (aorta rings from two rabbits)

SMILES | Kb (rabbit aortic rings; [2]) | Kb (rabbit aortic rings; [3]) | Assay C Duration (pressor response to AII) | inhibition in vivo at 3 mg/kg (pressor response to AII) | IC50 [1]
CCCCc1cn(CCc2ccccc2)c(=O)n1Cc1ccc(-c2ccccc2-c2nnn[nH]2)nc1 [Example 26, 1-(2-phenylethyl)-4-butyl-1,3-dihydro-3-[[6-[2-(1H-tetrazol-5-yl)phenyl]-3-pyridinyl]methyl]-2H-imidazol-2-one] | 4.37 nM | 3.63 nM | 180 min | 15% | 3.6 nM
CCCCc1cn(CCC2CCCC2)c(=O)n1Cc1ccc(-c2ccccc2-c2nnn[nH]2)nc1 [Example 27, 1-(2-cyclopentylethyl)-4-butyl-1,3-dihydro-3-[[6-[2-(1H-tetrazol-5-yl)phenyl]-3-pyridinyl]methyl]-2H-imidazol-2-one] | 1.82 nM | 2.14 nM | >180 min | 35% | 18 nM
CCCCn1cc(CCC(C)C)n(Cc2ccc(-c3ccccc3-c3nnn[nH]3)nc2)c1=O [Example 5, 1-butyl-4-isopentyl-1,3-dihydro-3-[[6-[2-(1H-tetrazol-5-yl)phenyl]-3-pyridinyl]methyl]-2H-imidazol-2-one] | 2.29 nM | 5.89 nM |  |  | 29 nM
CCCCc1cn(CCC(C)(C)C)c(=O)n1Cc1ccc(-c2ccccc2-c2nnn[nH]2)nc1 [Example 19, 1-(3,3-dimethylbutyl)-4-butyl-1,3-dihydro-3-[[6-[2-(1H-tetrazol-5-yl)phenyl]-3-pyridinyl]methyl]-2H-imidazol-2-one] | 3.72 nM | 4.37 nM | >180 min | 50% | 9.2 nM
CCCn1cc(CC(C)C)n(Cc2ccc(-c3ccccc3-c3nnn[nH]3)nc2)c1=O [Example 3, 1-propyl-4-isobutyl-1,3-dihydro-3-[[6-[2-(1H-tetrazol-5-yl)phenyl]-3-pyridinyl]methyl]-2H-imidazol-2-one] | 34.7 nM | 112 nM |  |  | 770 nM
CCCCc1cn(-c2ccccc2OC)c(=O)n1Cc1ccc(-c2ccccc2-c2nnn[nH]2)nc1 [Example 34, 1-(2-methoxyphenyl)-4-butyl-1,3-dihydro-3-[[6-[2-(1H-tetrazol-5-yl)phenyl]-3-pyridinyl]methyl]-2H-imidazol-2-one] |  |  |  |  | 9 nM
CCCCc1cn(-c2ccccc2C)c(=O)n1Cc1ccc(-c2ccccc2-c2nnn[nH]2)nc1 [Example 33, 1-(2-methylphenyl)-4-butyl-1,3-dihydro-3-[[6-[2-(1H-tetrazol-5-yl)phenyl]-3-pyridinyl]methyl]-2H-imidazol-2-one] |  |  | >180 min | 65% | 9.4 nM
CCCCc1cn(C2C3CC4CC(C3)CC2C4)c(=O)n1Cc1ccc(-c2ccccc2-c2nnn[nH]2)nc1 (stereo not drawn) [Example 29, 1-(2-adamantyl)-4-butyl-1,3-dihydro-3-[[6-[2-(1H-tetrazol-5-yl)phenyl]-3-pyridinyl]methyl]-2H-imidazol-2-one] |  |  |  |  | 51 nM
CCCCn1cc(C2CCCCC2)n(Cc2ccc(-c3ccccc3-c3nnn[nH]3)nc2)c1=O [Example 7, 1-butyl-4-cyclohexyl-1,3-dihydro-3-[[6-[2-(1H-tetrazol-5-yl)phenyl]-3-pyridinyl]methyl]-2H-imidazol-2-one] | 17.8 nM | 17.4 nM | 180 min | 10% | 81 nM
CCCCc1cn(C2CCCC2)c(=O)n1Cc1ccc(-c2ccccc2-c2nnn[nH]2)nc1 [Example 23, 1-cyclopentyl-4-butyl-1,3-dihydro-3-[[6-[2-(1H-tetrazol-5-yl)phenyl]-3-pyridinyl]methyl]-2H-imidazol-2-one] | 0.912 nM | 2.51 nM |  |  | 99 nM
CCCCc1cn(-c2ccccc2)c(=O)n1Cc1ccc(-c2ccccc2-c2nnn[nH]2)nc1 [Example 31, 1-phenyl-4-butyl-1,3-dihydro-3-[[6-[2-(1H-tetrazol-5-yl)phenyl]-3-pyridinyl]methyl]-2H-imidazol-2-one] |  |  |  |  | 45 nM
CCCCc1cn(-c2ccccc2C(C)C)c(=O)n1Cc1ccc(-c2ccccc2-c2nnn[nH]2)nc1 [Example 35, 1-(2-isopropylphenyl)-4-butyl-1,3-dihydro-3-[[6-[2-(1H-tetrazol-5-yl)phenyl]-3-pyridinyl]methyl]-2H-imidazol-2-one] |  |  |  |  | 14 nM
CCCCc1cn(C23CC4CC(CC(C4)C2)C3)c(=O)n1Cc1ccc(-c2ccccc2-c2nnn[nH]2)nc1 [Example 30, 1-(1-adamantyl)-4-butyl-1,3-dihydro-3-[[6-[2-(1H-tetrazol-5-yl)phenyl]-3-pyridinyl]methyl]-2H-imidazol-2-one] |  |  |  |  | 65 nM
CCCCc1cn(C(C)(C)C)c(=O)n1Cc1ccc(-c2ccccc2-c2nnn[nH]2)nc1 [Example 17, 1-tertbutyl-4-butyl-1,3-dihydro-3-[[6-[2-(1H-tetrazol-5-yl)phenyl]-3-pyridinyl]methyl]-2H-imidazol-2-one] | 1.66 nM | 2.34 nM | 180 min | 10% | 17 nM
CCCCc1cn(CCC2=CCCC2)c(=O)n1Cc1ccc(-c2ccccc2-c2nnn[nH]2)nc1 [Example 28, 1-[2-(cyclopenten-1-yl)ethyl]-4-butyl-1,3-dihydro-3-[[6-[2-(1H-tetrazol-5-yl)phenyl]-3-pyridinyl]methyl]-2H-imidazol-2-one] | 1.41 nM | 5.62 nM | 180 min | 15% | 23 nM
CCCCn1cc(CC(C)C)n(Cc2ccc(-c3ccccc3-c3nnn[nH]3)nc2)c1=O [Example 4, 1-butyl-4-isobutyl-1,3-dihydro-3-[[6-[2-(1H-tetrazol-5-yl)phenyl]-3-pyridinyl]methyl]-2H-imidazol-2-one] | 19.1 nM | 81.3 nM |  |  | 140 nM
CCCCc1cn(-c2c(C)cccc2C)c(=O)n1Cc1ccc(-c2ccccc2-c2nnn[nH]2)nc1 [Example 38, 1-(2,6-dimethylphenyl)-4-butyl-1,3-dihydro-3-[[6-[2-(1H-tetrazol-5-yl)phenyl]-3-pyridinyl]methyl]-2H-imidazol-2-one] |  |  |  |  | 5 nM
